In patent US10980739B2, “Treatment of a disease of the gastrointestinal tract with a chemokine/chemokine receptor inhibitor” (Progenity, Inc., priority 2016, dated 2021):

Assay: Tacrolimus tissue pharmacokinetics, oral versus intra-cecal ingestible device delivery
Assay type: in vivo, Yorkshire-Cross farm swine
Settings: swine, intra-cecal ingestible device vs oral, 12 hours post-dose; FIG. 76
Description: No further randomization procedure was employed.
Animals in Group 1 received an ingestible device containing 0.8 mL of vehicle solution (80% alcohol, 20% HCO-60). Animals in Group 2 received orally […] liquid formulation of tacrolimus at 4 mg/0.8 mL per animal (Prograf: 5 mg/mL). Animals in Group 3 received intra-cecally an ingestible device containing tacrolimus at 1 mg in 0.8 mL per ingestible device. Animals in Group 4 received intra-cecally an ingestible device containing tacrolimus at 2 mg in 0.8 mL per ingestible device. Animals in Group 5 received intra-cecally an ingestible device containing tacrolimus at 4 mg in 0.8 mL per ingestible device. […]
Approximately 200˜400 mg of rectal content were collected, if available, with a fecal swab (Copan Diagnostics Nylon Flocked Dry Swabs, 502CS01). The fecal swab was pre-weighed and weighed after collection in the collection tube (Sterile Tube and Cap No Media, PFPM913S), and the sample weight was recorded. […]
For tissue necropsy, small intestine fluid and cecal fluid were collected separately from all the animals into two separate square plastic bottles, and stored at −20° C. The length and diameter of the cecum and the colon was measured from one animal in each group and recorded for reference. […] All samples were weighed, and the tissue sample weights were recorded. […]

mean concentration of tacrolimus in the cecum tissue and the proximate colon tissue: higher
SMILES: C=CC[C@@H]1/C=C(\C)C[C@H](C)C[C@H](OC)[C@H]2O[C@@](O)(C(=O)C(=O)N3CCCC[C@H]3C(=O)O[C@H](/C(C)=C/[C@@H]3CC[C@@H](O)[C@H](OC)C3)[C@H](C)[C@@H](O)CC1=O)[C@H](C)C[C@@H]2OC [tacrolimus]
